Measured values published in PubChem BioAssay (NCI).
Several values for one entry are separate records, joined by “and”; a condition that tells them apart may be missing. Equal values may be shown once.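 Values below derive from 48-hour exposures of cells grown in 96-well plates, with endpoints linearly interpolated between the two concentrations bracketing the appropriate inhibition level. Here, GI50 denotes the concentration required for 50% inhibition of growth. The concentration for full growth arrest is given as TGI.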

What was measured:
Experiment in all cases: DTP human tumour cell line panel, 48 h
[1] = test system: CCRF-CEM leukemia
[2] = test system: SK-MEL-28 melanoma
[3] = test system: HCC-2998 colon
[4] = test system: OVCAR-5 ovarian
[5] = test system: HT29 colon
[6] = test system: SF-539 CNS
[7] = test system: UO-31 renal
[8] = test system: M14 melanoma
[9] = test system: RPMI-8226 leukemia
[10] = test system: UACC-62 melanoma

| Compound | GI50 [1] | TGI [1] | GI50 [2] | TGI [2] [µM] | GI50 [3] | TGI [3] [µM] | GI50 [4] [µM] | TGI [4] [µM] | GI50 [5] | TGI [5] | GI50 [6] | TGI [6] [µM] | GI50 [7] [µM] | TGI [7] [µM] | GI50 [8] [µM] | TGI [8] [µM] | GI50 [9] | TGI [9] | GI50 [10] | TGI [10] [µM] |
| --- | --- | --- | --- | --- | --- | --- | --- | --- | --- | --- | --- | --- | --- | --- | --- | --- | --- | --- | --- | --- |
| COc1cc(Cl)cc(-c2nn(-c3cccc(NC(=O)Nc4cccc(C(F)(F)F)c4)c3)cc2-c2ccncc2)c1 | 1200 nM | 5.36 µM | 2530 nM | 12.1 | 3.47 µM | 14 | 3.06 | 30.1 | 1510 nM | 6.24 µM | 1900 nM | 4.82 | 1.03 | 7.75 | 1.34 | 3.98 | 430 nM | 2.3 µM | 1470 nM | 3.84 |
| Cc1ccc(Nc2cc(Cl)c([N+](=O)[O-])cc2[N+](=O)[O-])cc1 | 1960 nM | 19.8 µM | 2770 nM | 7.27 | 2.26 µM | 4.81 | 6.62 | 20.9 | 3040 nM | 8.07 µM | 4000 nM | 15.3 | 4.71 | 17.5 | 3.96 | 15.6 | 2920 nM | 9.45 µM | 4130 nM | 15.6 |
| COc1cccc(-c2nn(-c3ccccc3)cc2-c2ccnc(NCCCNC(=O)c3cccc(C(F)(F)F)c3)c2)c1 | 6110 nM | > 100 µM | 5450 nM | 25.3 | 3.96 µM | 18.2 | 11.3 | 48.7 | 3610 nM | 13.6 µM | 2920 nM | 8.29 | 2.69 | 16.6 | 4.63 | 30.3 | 2640 nM | 11.5 µM | 3580 nM | 16.2 |
| CCCCCCCCOCC(O)CO (stereo unspecified) | – | 65 µM | – | > 100 | – | > 100 | – | > 100 | – | > 100 µM | – | > 100 | – | > 100 | – | > 100 | – | > 100 µM | – | > 100 |
| Cc1ccc(C(=O)c2sc3nc4c(cc3c2N)CCCC4)c(C)c1 | 311 nM | > 100 µM | 2150 nM | > 100 | 4.72 µM | > 100 | 2.49 | > 100 | 443 nM | > 35 µM | 250 nM | 0.956 | 0.766 | > 100 | 0.19 | > 100 | 406 nM | 6.97 µM | 256 nM | > 100 |
| O=c1c2cc(Br)cc(Br)c2nc(CCCl)n1-c1ccc(O)c([N+](=O)[O-])c1 | – | 43.7 µM | – | 35.4 | – | 32.4 | – | 33.1 | – | 41.1 µM | – | 37.1 | – | 33.9 | – | 31.9 | – | 56.1 µM | – | 47.3 |
| Cc1cccc(C)c1NC(=O)CCc1nnc2s/c(=C\c3ccc(N(C)C)cc3)c(=O)n12 | – | > 100 µM | – | > 100 | – | > 100 | – | > 100 | – | > 100 µM | – | > 100 | – | > 100 | – | > 100 | – | > 100 µM | – | > 100 |
| C[P+](C)(C)C | – | > 100 µM | – | > 100 | – | > 100 | – | > 100 | – | > 100 µM | – | > 100 | – | > 100 | – | > 100 | – | > 100 µM | – | > 100 |
| C/C(=N\NC(N)=S)c1ccc(C)c(C)c1 | – | > 100 µM | – | > 100 | – | > 100 | – | > 100 | – | 98.9 µM | – | > 100 | – | > 100 | – | > 100 | – | > 100 µM | – | > 100 |
| C[C@H]1C/C=C/[C@H]2[C@@H]3O[C@]3(C)[C@@H](C)[C@H]3[C@H](Cc4ccccc4)NC(=O)[C@]32OC(=O)O/C=C/[C@@](C)(O)C1=O | 12.5 nM and 25 nM | 67.7 µM and 84.6 µM and 71.5 µM | 20.4 nM and 47 nM | – | 0.155 µM and 0.342 µM | – | – | > 95.4 | 46.5 nM and 25 nM | 99.2 µM and 125 µM and > 250 µM | 12.5 nM and 25 nM | – | – | 0.0499 | – | 25.4 | 235 nM and 49.3 nM | 76.2 µM and 44.9 µM and 32.2 µM | 65.2 nM and 25 nM | – |
| CCOC(=O)C(Cc1c[nH]c2cc(N(CCO)CCO)ccc12)(NC(C)=O)C(=O)OCC | – | 57.2 µM and 448 µM | 636000 nM | > 1000 | > 1000 µM | > 1000 | > 1000 | > 1000 | 305000 nM | > 1000 µM | 42900 nM and 286000 nM | 770 | 673 | > 1000 | 517 | > 1000 | 65300 nM | – | 66800 nM | > 1000 |
| COc1cc(-n2cc(-c3ccccc3)[nH]c2=O)cc(OC)c1OC | > 100000 nM | > 100 µM | 31400 nM | > 100 | > 100 µM | > 100 | > 100 | > 100 | > 100000 nM | > 100 µM | 21500 nM | 63.8 | 37.9 | > 100 | > 100 | > 100 | > 100000 nM | > 100 µM | 36900 nM | > 100 |
| O=[P+](O)c1ccccn1 | – | > 100 µM | – | > 100 | – | > 100 | – | > 100 | – | > 100 µM | – | > 100 | – | > 100 | – | > 100 | – | > 100 µM | – | > 100 |
| Cc1cccc(C)c1NC(=O)CCC/C(CC(=O)c1ccc(F)cc1)=N\NC(=O)C(=O)NN | – | > 100 µM | – | > 100 | – | > 100 | – | > 100 | – | > 100 µM | – | > 100 | – | > 100 | – | > 100 | – | > 100 µM | – | > 100 |
